From article PMC9792171, “Design and synthesis of new thiazolidinone/uracil derivatives as antiproliferative agents targeting EGFR and/or BRAF^V600E” (Frontiers in Chemistry, 2022) come the findings set out here.

Assay [1] concerns four human cancer cell lines (A-549, MCF-7, Panc-1, HT-29). As to the kind of experiment: Antiproliferative MTT assay, average of four cancer cell lines (GI50). The note with it: for IC50: Homo sapiens, average of A-549, MCF-7, Panc-1, HT-29. The format is cell-based. How it is done:
Using the MTT assay ([Abdelrahman et al., 2017]; [El-Sherief et al., 2018]) and doxorubicin as the reference drug, 3a-f and 5a-l were tested for antiproliferative activity against four human cancer cell lines: Panc-1 (pancreas cancer cell line), MCF-7 (breast cancer cell line), HT-29 (colon cancer cell line), and A-549 (epithelial cancer cell line). […]
(§1) To explore the antiproliferative potential of compounds MTT assay was performed according to previously reported procedure (El-Sherief, H.A.M., et al., 2018; Abdelrahman, M. H., et al., 2017) using different cell lines to explore the antiproliferative potential of compounds propidium iodide fluorescence assay was performed using different cell lines. To calculate the total nuclear DNA, a fluorescent dye (propidium iodide, PI) is used which can attach to the DNA, thus offering a quick and precise technique. PI cannot pass through the cell membrane and its signal intensity can be considered as directly proportional to quantity of cellular DNA. Cells whose cell membranes are damaged or have changed permeability are counted as dead ones. The assay was performed by seeding the cells of different cell lines at a density of 3000-7500 cells/well (in 200µl medium) in culture plates followed by incubation for 24h at 37 °C in humidified 5% CO2/95% air atmospheric conditions. The medium was removed; the compounds were added to the plates at 10 µM concentrations (in 0.1% DMSO) in triplicates, followed by incubation for 48 h. DMSO (0.1%) was used as control. After incubation, medium was removed followed by the addition of PI (25 µl, 50µg/mL in water/medium) to each well of the plates. At -80 °C, the plates were allowed to freeze for 24 h, followed by thawing at 25 °C. A fluorometer (Polar-Star BMG Tech) was used to record the readings at excitation and emission wavelengths of 530 and 620 nm for each well. The percentage cytotoxicity of compounds was calculated using the following formula: […]

For a further assay, the target named is T1, BRAF^V600E (Mus musculus, UniProt P28028, V585E).
T1 construct: Mouse full-length GST-tagged BRAF^V600E (7.5 ng, Invitrogen, PV3849); GST; purchased Invitrogen PV3849
T1 sequence (P28028 whole entry V585E): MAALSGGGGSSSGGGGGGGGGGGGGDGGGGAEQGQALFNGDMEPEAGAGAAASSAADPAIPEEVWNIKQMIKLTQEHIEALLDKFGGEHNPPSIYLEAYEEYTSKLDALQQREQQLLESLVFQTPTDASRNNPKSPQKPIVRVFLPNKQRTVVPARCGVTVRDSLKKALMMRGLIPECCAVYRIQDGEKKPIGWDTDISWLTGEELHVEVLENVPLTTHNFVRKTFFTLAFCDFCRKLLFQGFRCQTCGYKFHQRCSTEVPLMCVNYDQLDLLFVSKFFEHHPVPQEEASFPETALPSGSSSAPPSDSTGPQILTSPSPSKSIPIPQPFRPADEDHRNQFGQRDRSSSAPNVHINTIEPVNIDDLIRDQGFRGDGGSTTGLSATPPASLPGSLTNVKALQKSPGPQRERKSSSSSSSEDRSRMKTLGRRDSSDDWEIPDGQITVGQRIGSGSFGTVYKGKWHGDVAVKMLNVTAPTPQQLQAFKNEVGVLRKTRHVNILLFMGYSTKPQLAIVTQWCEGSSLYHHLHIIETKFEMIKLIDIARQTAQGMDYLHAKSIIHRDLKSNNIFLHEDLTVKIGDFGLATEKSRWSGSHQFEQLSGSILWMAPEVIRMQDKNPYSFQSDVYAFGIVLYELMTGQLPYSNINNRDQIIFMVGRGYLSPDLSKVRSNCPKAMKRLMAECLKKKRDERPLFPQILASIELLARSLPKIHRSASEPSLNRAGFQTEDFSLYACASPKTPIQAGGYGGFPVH
As to the kind of experiment: BRAF^V600E inhibitory assay (V600E mutant BRAF kinase assay). The format is biochemical. The note with it: read-out: BRAF^V600E inhibition IC50 ± SEM. The method, then: Mouse full-length GST-tagged BRAF^V600E (7.5 ng, Invitrogen, PV3849) was pre-incubated with drug (1 µL) and assay dilution buffer (4 µL) for 60 min at 25 °C. In assay dilution buffer, a solution (5 µL) containing MgCl2 (30 mM), ATP (200 µM), recombinant human full length (200 ng) […] N-terminal His-tagged MEK1 (Invitrogen) was added to start the assay, subsequent to incubation for 25 min at 25 °C. The assay was stopped using 5X protein denaturing buffer (LDS) solution (5 µL). To further denature the protein, heat (70° C) was applied for 5 min. […] 10 µL of each reaction was loaded into the precast plates and electrophoresis was allowed to proceed. After completion of electrophoresis, the front part of the precast gel plate (holding hot ATP) was cut and afterwards cast-off. The dried gel was developed using a phosphor screen. […] To study the effect of compounds on cell-based pERK1/2 activity in cancer cells, commercially available ELISA kits (Invitrogen) were used according to manufacturer’s instructions.

The target in another assay is T2, EGFR (Homo sapiens, UniProt P00533).
T2 construct: EGFR cytoplasmic domain (EGFR-CD, amino acids 645–1186); His6 (N); made in house; host or cells: Sf-9 insect cells (baculovirus; pBlueBacHis2B and pFASTBacHTc)
T2 sequence (P00533 669-1210): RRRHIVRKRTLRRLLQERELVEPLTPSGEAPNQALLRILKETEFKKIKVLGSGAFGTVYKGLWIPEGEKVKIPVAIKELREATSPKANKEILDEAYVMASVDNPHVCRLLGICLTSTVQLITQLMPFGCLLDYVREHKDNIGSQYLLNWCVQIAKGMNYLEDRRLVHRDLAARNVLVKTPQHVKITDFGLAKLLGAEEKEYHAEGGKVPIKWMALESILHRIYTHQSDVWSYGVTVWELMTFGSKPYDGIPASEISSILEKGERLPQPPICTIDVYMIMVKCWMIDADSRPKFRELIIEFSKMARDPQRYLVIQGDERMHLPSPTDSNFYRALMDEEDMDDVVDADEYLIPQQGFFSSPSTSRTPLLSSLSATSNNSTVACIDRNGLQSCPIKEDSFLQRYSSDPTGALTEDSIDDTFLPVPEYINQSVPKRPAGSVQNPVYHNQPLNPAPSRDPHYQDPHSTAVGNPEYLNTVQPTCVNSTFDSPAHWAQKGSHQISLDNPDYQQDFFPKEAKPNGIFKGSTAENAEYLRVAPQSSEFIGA
Description: EGFR inhibitory assay (EGFR-TK, DELFIA/time-resolved fluorometry). The note with it: for IC50: read-out: EGFR inhibition IC50 ± SEM. The format is biochemical. The method, then:
5ʹ upstream to the EGFR sequence comprised a sequence that encoded (His)6. Sf-9 cells were infected for 72h for protein expression. The pellets of Sf-9 cells were solubilized in a buffer containing sodium vanadate (100 µM), aprotinin (10 µg/mL), triton (1%), HEPES buffer (50mM), ammonium molybdate (10 µM), benzamidine HCl (16 µg/mL), NaCl (10 mM), leupeptin (10 µg/mL) and pepstatin (10 µg/mL) at 0°C for 20 min at pH 7.4, followed by centrifugation for 20 min. To eliminate the non-specifically bound material, a Ni-NTA super flow packed column was used to pass through and wash the crude extract supernatant first with 10 mM and then with 100 mM imidazole. Histidine-linked proteins were first eluted with 250 and then with 500 mM imidazole after dialysis against NaCl (50 mM), HEPES (20 mM), glycerol (10%) and 1 µg/mL each of aprotinin, leupeptin and pepstatin for 120 min. The purification was performed either at 4 °C or on ice. To record autophosphorylation level, EGFR kinase assay was carried out based on DELFIA/Time-Resolved Fluorometry. The compounds were first dissolved in DMSO absolute, after dilution to appropriate concentration using HEPES (25 mM) at pH 7.4. Each compound (10 µL) was incubated with recombinant enzyme (10 µL, 5 ng for EGFR, 1:80 dilution in 100 mM HEPES) for 10 min at 25 °C, after the addition of 5X buffer (10 µL, containing 2 mM MnCl2, 100 µM Na3VO4, 20 mM HEPES and 1 mM DTT) and ATP-MgCl2 (20 µL, containing 0.1 mM ATP and 50 mM MgCl2) and incubation for 1h. The negative and positive controls were included in each plate by the incubation of enzyme either with or without ATP-MgCl2. The liquid was removed after incubation and the plates were washed thrice using wash buffer. Europium-tagged antiphosphotyrosine antibody (75 µL, 400 ng) was added to each well followed by incubation of 1h and then washing of the plates using buffer. The enhancement solution was added to each well and the signal was recorded at excitation and emission wavelengths of 340 at 615 nm. The autophosphorylation percentage inhibition by compounds was calculated using the following equation: […]

The subject of assay [2] is A-549 (epithelial cancer cell line). As to the kind of experiment: Antiproliferative MTT assay, A-549. The assay is classed as cell-based. The note with it: Homo sapiens, A549; A-549, MTT; read-out: Antiproliferative activity IC50 ± SEM (nM) A-549. The method, then: (§2) Using the MTT assay ([Abdelrahman et al., 2017]; [El-Sherief et al., 2018]) and doxorubicin as the reference drug, 3a-f and 5a-l were tested for antiproliferative activity against four human cancer cell lines: Panc-1 (pancreas cancer cell line), MCF-7 (breast cancer cell line), HT-29 (colon cancer cell line), and A-549 (epithelial cancer cell line).
as §1

The test system of assay [3] is Panc-1 (pancreas cancer cell line). Description: Antiproliferative MTT assay, Panc-1. The note with it: Homo sapiens; Panc-1, MTT; read-out: Antiproliferative activity IC50 ± SEM (nM) Panc-1. The assay is classed as cell-based. The method, then: as §2, §1
The test system of assay [4] is HT-29 (colon cancer cell line). As to the kind of experiment: Antiproliferative MTT assay, HT-29. The assay is classed as cell-based. The note with it: Homo sapiens; HT-29, MTT; read-out: Antiproliferative activity IC50 ± SEM (nM) HT-29. How it is done: as §2, §1

Consider `CCOC(=O)/C=C1\S/C(=N\c2c[nH]c(=O)[nH]c2=O)N(c2ccc(C)cc2)C1=O` [Compound 5b, (Z)-Ethyl-2-((Z)-2-((2,4-dioxo-1,2,3,4-tetrahydropyrimidin-5-yl)imino)-4-oxo-3-(p-tolyl)thiazolidin-5-ylidene)acetate], for which the IC50 in assay [1] was 1300 nM; at BRAF^V600E it was 93 ± 8 nM; on EGFR, 91 ± 7 nM; in assay [2], 1200 ± 100 nM; in assay [3], 1400 ± 100 nM; in assay [4] it was 1400 ± 100 nM. The “fold less potent than compound 5j (GI50)” value in assay [1] (ratio of GI50 values) is 1.2 fold.

As for `COC(=O)/C=C1\S/C(=N\c2c[nH]c(=O)[nH]c2=O)N(Cc2ccccc2)C1=O` [Compound 5j, (Z)-Methyl-2-((Z)-3-benzyl-2-((2,4-dioxo-1,2,3,4-tetrahydropyrimidin-5-yl)imino)-4-oxothiazolidin-5-ylidene)acetate], the IC50 in assay [1] came to 1100 nM; at BRAF^V600E, 115 ± 12 nM; on EGFR, 87 ± 5 nM; in assay [2], 1100 ± 100 nM; in assay [3], 1200 ± 100 nM; in assay [4], 1200 ± 100 nM.

Take `CCOC(=O)/C=C1\S/C(=N\c2c[nH]c(=O)[nH]c2=O)N(c2cccc(OC)c2)C1=O` [Compound 5c, (Z)-Ethyl-2-((Z)-2-((2,4-dioxo-1,2,3,4-tetrahydropyrimidin-5-yl)imino)-3-(3-methoxyphenyl)-4-oxo-thiazolidin-5-ylidene)acetate]: the IC50 was found to be 1700 nM in assay [1]; 107 ± 10 nM at BRAF^V600E; 115 ± 10 nM at EGFR; 1500 ± 100 nM in assay [2]; 1900 ± 200 nM in assay [3]; 1800 ± 100 nM in assay [4].

As for `COC(=O)/C=C1\S/C(=N\c2c[nH]c(=O)[nH]c2=O)N(c2cccc(OC)c2)C1=O` [Compound 5i, (Z)-Methyl-2-((Z)-2-((2,4-dioxo-1,2,3,4-tetrahydropyrimidin-5-yl)imino)-3-(3-methoxyphenyl)-4-oxothiazolidin-5-ylidene)acetate], the IC50 in assay [1] worked out at 1350 nM; on BRAF^V600E it was 122 ± 12 nM; at EGFR it was 96 ± 7 nM; in assay [2] it was 1300 ± 100 nM; in assay [3] it was 1500 ± 100 nM; in assay [4] it was 1600 ± 100 nM.

Turning to `COc1cccc(NC(=S)Nc2c[nH]c(=O)[nH]c2=O)c1` [Compound 3c, 1-(2,4-Dioxo-1,2,3,4-tetrahydropyrimidin-5-yl)-3-(3-methoxyphenyl)thiourea], the IC50 in assay [1] was 1850 nM; at BRAF^V600E, 148 ± 12 nM; at EGFR, 125 ± 11 nM; in assay [2], 1800 ± 200 nM; in assay [3], 2100 ± 200 nM; in assay [4], 2100 ± 200 nM. Also, on EGFR (ratio of EGFR IC50 values), the “fold less potent than erlotinib (EGFR IC50)” value is given as 1.6 fold.

Consider `COC(=O)/C=C1\S/C(=N\c2c[nH]c(=O)[nH]c2=O)N(c2ccc(C)cc2)C1=O` [Compound 5h, (Z)-Methyl-2-((Z)-2-((2,4-dioxo-1,2,3,4-tetrahydropyrimidin-5-yl)imino)-4-oxo-3-(p-tolyl)-thiazolidin-5-ylidene)acetate], for which the IC50 in assay [1] came to 1650 nM; at BRAF^V600E it was 137 ± 12 nM; at EGFR it was 112 ± 10 nM; in assay [2], 1400 ± 100 nM; in assay [3], 1800 ± 100 nM; in assay [4], 1700 ± 100 nM.
